# Measured values: patent US20230146455A1, “TREATMENT OF INFLAMMATORY DISEASES WITH PEPTIDES AND PHARMACEUTICAL COMPOSITIONS” (Yuyu Pharma, Inc., priority 2020, published 2023)
# “And” between values parts separate entries of the source, which are not always exact repeats. Equal values may be shown once. Where a SMILES comes first, the peptide text is derived from it. [ ]: non-standard residue; d: D form. Hyp = O=C(O)[C@@H]1C[C@@H](O)CN1
# Test system: CCL3/MIP-1 alpha
# Assay: Example 8 main study Luminex, LPS hPBMCs: CCL3/MIP-1 alpha
# Assay type: cell-based, human
# Settings: for LPS-induced CCL-3 (in words): at as low as 5 μM, LPS 5 ug/mL 24 hrs
# Description: Human PBMCs were pretreated with YY-101, YDE-011, YDE-043 or reference compound; Xiidra® at various concentration (ranging from […] to 500 nM) for 2 h before stimulation. An equal volume of 0.5% DMSO was used as a vehicle control. Then, the cells were treated with LPS at 5 ug/ml, which was selected based on the pilot study. The supernatants from treated cells were harvested at 24 h and placed in a 96 well for Luminex cytokine & chemokine profiling using a Luminex 200 multiplex assay (Luminex; R&D system, USA).
# The main study arm with triplicate wells per group in a 24-well plate: • 1. Blank • 2. PBMC: 0.5% DMSO • 3. PBMC+LPS (5 ug/ml) • 4. PBMC+YY-101 500 nM • 5. PBMC+YY-101 50 nM • 6. PBMC+YY-101 5 nM • 7. PBMC+YY-101 0.5 nM • 8. PBMC+LPS (5 ug/ml)+Xiidra® 500 nM • 9. PBMC+LPS (5 ug/ml)+Xiidra® 50 nM • 10. PBMC+LPS (5 ug/ml)+Xiidra® 5 nM • 11. PBMC+LPS (5 ug/ml)+Xiidra® 0.5 nM • 12. PBMC+LPS (5 ug/ml)+Xiidra® 0.05 nM • 13. PBMC+LPS (5 ug/ml)+Xiidra® 0.005 nM • 14. PBMC+LPS (5 ug/ml)+YY-101 500 nM • 15. PBMC+LPS (5 ug/ml)+YY-101 50 nM • 16. PBMC+LPS (5 ug/ml)+YY-101 5 nM • 17. PBMC+LPS (5 ug/ml)+YY-101 0.5 nM • 18. PBMC+LPS (5 ug/ml)+YY-101 0.05 nM • 19. PBMC+LPS (5 ug/ml)+YY-101 0.005 nM • 20. PBMC+LPS (5 ug/ml)+YDE-011 500 nM • 21. PBMC+LPS (5 ug/ml)+YDE-011 50 nM • 22. PBMC+LPS (5 ug/ml)+YDE-011 5 nM • 23. PBMC+LPS (5 ug/ml)+YDE-011 0.5 nM • 24. PBMC+LPS (5 ug/ml)+YDE-011 0.05 nM • 25. PBMC+LPS (5 ug/ml)+YDE-011 0.005 nM • 26. PBMC+LPS (5 ug/ml)+YDE-043 500 nM • 27. PBMC+LPS (5 ug/ml)+YDE-043 50 nM • 28. PBMC+LPS (5 ug/ml)+YDE-043 5 nM • 29. PBMC+LPS (5 ug/ml)+YDE-043 0.5 nM • 30. PBMC+LPS (5 ug/ml)+YDE-043 0.05 nM • 31. PBMC+LPS (5 ug/ml)+YDE-043 0.005 nM
# Multiplex assay was used to measure 30 cytokines and chemokines. The 1:200 diluted cell supernatant and serial dilution of the standard were dispensed into a 96 well plate at 50 ul/well. Then, the pre-mixed cocktail of antibody-coated magnetic beads was dispensed at 50 ul/well and incubated at room temperature for 2 h in a horizontal orbital microplate shaker at 800±500 rpm. The beads were washed using a magnetic device to prevent loss. The biotin-antibody was dispensed in 50 ul of each well and incubated at room temperature for 1 h in a shaker at 800±500 rpm. After washing, streptavidin-PE was added at 50 ul/well and incubated at room temperature for 30 min in a shaker under the same conditions. Finally, after washing, wash buffer (100 ul/well) was added to the plate and incubated in a shaker for 2 min. The Luminex™ 200 setting were set according to the manufacturer's protocol. The data was calculated with a standard five-parameter logistic nonlinear regression analysis of the data (xPonent software 4.2, USA). Results were presented as concentration (ng/ml or pg/ml).
# [1] = PBMC + LPS(5 ug/ml) + test article 0.005 nM, Mean
# [2] = PBMC + LPS(5 ug/ml) + test article 0.005 nM, single replicates
# [3] = PBMC + LPS(5 ug/ml) + test article 0.05 nM, Mean
# [4] = PBMC + LPS(5 ug/ml) + test article 0.05 nM, single replicates
# [5] = PBMC + LPS(5 ug/ml) + test article 0.5 nM, Mean
# [6] = PBMC + LPS(5 ug/ml) + test article 0.5 nM, single replicates
# [7] = PBMC + LPS(5 ug/ml) + test article 5 nM, Mean
# [8] = PBMC + LPS(5 ug/ml) + test article 5 nM, single replicates
# [9] = PBMC + LPS(5 ug/ml) + test article 50 nM, Mean
# [10] = PBMC + LPS(5 ug/ml) + test article 50 nM, single replicates
# [11] = PBMC + LPS(5 ug/ml) + test article 500 nM, Mean
# [12] = PBMC + LPS(5 ug/ml) + test article 500 nM, single replicates
# [13] = PBMC + test article 0.5 nM, no LPS, Mean
# [14] = PBMC + test article 0.5 nM, no LPS, single replicates
# [15] = PBMC + test article 5 nM, no LPS, Mean
# [16] = PBMC + test article 5 nM, no LPS, single replicates
# [17] = PBMC + test article 0.05 uM, no LPS, Mean
# [18] = PBMC + test article 0.05 uM, no LPS, single replicates
# [19] = PBMC + test article 50 nM, no LPS, Mean
# [20] = PBMC + test article 50 nM, no LPS, single replicates
# [21] = PBMC + test article 500 nM, no LPS, Mean
# [22] = PBMC + test article 500 nM, no LPS, single replicates
smiles,measurement,setting,value
CC(C)C[C@H](NC(=O)CNC(=O)[C@H](CC(C)C)NC(=O)[C@H](CCC(N)=O)NC(=O)CNC(=O)[C@@H]1C[C@@H](O)CN1)C(=O)N[C@@H](C)C(=O)NCC(=O)N1CCC[C@H]1C(=O)N[C@@H](CCCCN)C(=O)O [YDE-011] (H-[Hyp]GQLGLAGPK-OH),CCL3/MIP-1 alpha Concentration,[1],30631.2 pg/mL
same,CCL3/MIP-1 alpha MFI,[1],40.8
same,CCL3/MIP-1 alpha Concentration,[2],31818.4 pg/mL and 28790.7 pg/mL and 31284.6 pg/mL
same,CCL3/MIP-1 alpha MFI,[2],43.0 and 37.5 and 42.0
same,CCL3/MIP-1 alpha Concentration,[3],34293.4 pg/mL
same,CCL3/MIP-1 alpha MFI,[3],47.8
same,CCL3/MIP-1 alpha Concentration,[4],34390.9 pg/mL and 32865.8 pg/mL and 35623.4 pg/mL
same,CCL3/MIP-1 alpha MFI,[4],48.0 and 45.0 and 50.5
same,CCL3/MIP-1 alpha Concentration,[5],30465.1 pg/mL
same,CCL3/MIP-1 alpha MFI,[5],40.5
same,CCL3/MIP-1 alpha Concentration,[6],31284.6 pg/mL and 29639.8 pg/mL and 30470.7 pg/mL
same,CCL3/MIP-1 alpha MFI,[6],42.0 and 39.0 and 40.5
same,CCL3/MIP-1 alpha Concentration,[7],27362.3 pg/mL
same,CCL3/MIP-1 alpha MFI,[7],35.2
same,CCL3/MIP-1 alpha Concentration,[8],25497.0 pg/mL and 26119.3 pg/mL and 30470.7 pg/mL
same,CCL3/MIP-1 alpha MFI,[8],32.0 and 33.0 and 40.5
same,CCL3/MIP-1 alpha Concentration,[9],28334.6 pg/mL
same,CCL3/MIP-1 alpha MFI,[9],37.3
same,CCL3/MIP-1 alpha Concentration,[10],32865.8 pg/mL and 21122.8 pg/mL and 31015.1 pg/mL
same,CCL3/MIP-1 alpha MFI,[10],45.0 and 25.5 and 41.5
same,CCL3/MIP-1 alpha Concentration,[11],27851.5 pg/mL
same,CCL3/MIP-1 alpha MFI,[11],36.8
same,CCL3/MIP-1 alpha Concentration,[12],34390.9 pg/mL and 19244.9 pg/mL and 29918.7 pg/mL
same,CCL3/MIP-1 alpha MFI,[12],48.0 and 23.0 and 39.5
same,LPS-induced CCL-3 (in words),,significantly reduced
CC(C)C[C@H](NC(=O)CNC(=O)[C@H](CC(=O)O)NC(=O)[C@H](CCC(N)=O)NC(=O)CNC(=O)[C@@H]1C[C@@H](O)CN1)C(=O)N[C@@H](C)C(=O)NCC(=O)N1CCC[C@H]1C(=O)N[C@@H](CCCCN)C(=O)O [YY-101] (H-[Hyp]GQDGLAGPK-OH; N-terminus and C-terminus assumed),CCL3/MIP-1 alpha Concentration,[1],33793.5 pg/mL
same,CCL3/MIP-1 alpha MFI,[1],46.8
same,CCL3/MIP-1 alpha Concentration,[2],35134.4 pg/mL and 33380.1 pg/mL and 32865.8 pg/mL
same,CCL3/MIP-1 alpha MFI,[2],49.5 and 46.0 and 45.0
same,CCL3/MIP-1 alpha Concentration,[3],36420.8 pg/mL
same,CCL3/MIP-1 alpha MFI,[3],52.2
same,CCL3/MIP-1 alpha Concentration,[4],35866.0 pg/ml (2×) and 37530.4 pg/ml
same,CCL3/MIP-1 alpha MFI,[4],51.0 (2×) and 54.5
same,CCL3/MIP-1 alpha Concentration,[5],34955.7 pg/mL
same,CCL3/MIP-1 alpha MFI,[5],49.2
same,CCL3/MIP-1 alpha Concentration,[6],36107.4 pg/mL and 33380.1 pg/mL and 35379.6 pg/mL
same,CCL3/MIP-1 alpha MFI,[6],51.5 and 46.0 and 50.0
same,CCL3/MIP-1 alpha Concentration,[7],34545.7 pg/mL
same,CCL3/MIP-1 alpha MFI,[7],48.3
same,CCL3/MIP-1 alpha Concentration,[8],33380.1 pg/mL and 35866.0 pg/mL and 34390.9 pg/mL
same,CCL3/MIP-1 alpha MFI,[8],46.0 and 51.0 and 48.0
same,CCL3/MIP-1 alpha Concentration,[9],33677.2 pg/mL
same,CCL3/MIP-1 alpha MFI,[9],46.7
same,CCL3/MIP-1 alpha Concentration,[10],31818.4 pg/mL and 36347.5 pg/mL and 32865.8 pg/mL
same,CCL3/MIP-1 alpha MFI,[10],43.0 and 52.0 and 45.0
same,CCL3/MIP-1 alpha Concentration,[11],33967.7 pg/mL
same,CCL3/MIP-1 alpha MFI,[11],47.2
same,CCL3/MIP-1 alpha Concentration,[12],33635.0 pg/mL and 34887.9 pg/mL and 33380.1 pg/mL
same,CCL3/MIP-1 alpha MFI,[12],46.5 and 49.0 and 46.0
same,CCL3/MIP-1 alpha Concentration,[13],16345.0 pg/mL
same,CCL3/MIP-1 alpha MFI,[13],19.5
same,CCL3/MIP-1 alpha Concentration,[14],15903.7 pg/mL and 16786.4 pg/mL
same,CCL3/MIP-1 alpha MFI,[14],19.0 and 20.0
same,CCL3/MIP-1 alpha Concentration,[15],14259.0 pg/mL
same,CCL3/MIP-1 alpha MFI,[15],17.3
same,CCL3/MIP-1 alpha Concentration,[16],14014.0 pg/mL and 14504.0 pg/mL
same,CCL3/MIP-1 alpha MFI,[16],17.0 and 17.5
same,CCL3/MIP-1 alpha Concentration,[17],13904.3 pg/mL
same,CCL3/MIP-1 alpha MFI,[17],17.0
same,CCL3/MIP-1 alpha Concentration,[18],15903.7 pg/mL and 11904.9 pg/mL
same,CCL3/MIP-1 alpha MFI,[18],19.0 and 15.0
same,CCL3/MIP-1 alpha Concentration,[19],14246.1 pg/mL
same,CCL3/MIP-1 alpha MFI,[19],17.3
same,CCL3/MIP-1 alpha Concentration,[20],13510.6 pg/mL and 14981.7 pg/mL
same,CCL3/MIP-1 alpha MFI,[20],16.5 and 18.0
same,CCL3/MIP-1 alpha Concentration,[21],14014.0 pg/mL
same,CCL3/MIP-1 alpha MFI,[21],17.0
same,CCL3/MIP-1 alpha Concentration,[22],14014.0 pg/mL
same,CCL3/MIP-1 alpha MFI,[22],17.0
same,LPS-induced CCL-3 (in words),,significantly reduced
